Source: PubChem BioAssay (NCI)
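Values below derive from 48-hour exposures of cells grown in 96-well plates, with endpoints linearly interpolated between the two concentrations bracketing the appropriate inhibition level. TGI is the concentration that stops growth completely.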

Key:
Assay in all cases: NCI anticancer screen, dose series, 48 h
A549 NSCLC = test system: A549 NSCLC
NCI-H226 lung = test system: NCI-H226 lung
SF-268 CNS = test system: SF-268 CNS
HOP-62 NSCLC = test system: HOP-62 NSCLC
DMS 114 small cell lung = test system: DMS 114 small cell lung
CAKI-1 renal = test system: CAKI-1 renal
KM12 colon = test system: KM12 colon
786-0 renal = test system: 786-0 renal
M14 melanoma = test system: M14 melanoma
EKVX NSCLC = test system: EKVX NSCLC
HOP-18 NSCLC = test system: HOP-18 NSCLC
NCI-H460 lung = test system: NCI-H460 lung
UACC-62 melanoma = test system: UACC-62 melanoma
MOLT-4 leukemia = test system: MOLT-4 leukemia
SNB-75 CNS = test system: SNB-75 CNS
U251 CNS = test system: U251 CNS
SR leukemia = test system: SR leukemia
NCI-H522 lung = test system: NCI-H522 lung
SK-MEL-2 melanoma = test system: SK-MEL-2 melanoma
DMS 273 small cell lung = test system: DMS 273 small cell lung
KM20L2 colon = test system: KM20L2 colon
OVCAR-4 ovarian = test system: OVCAR-4 ovarian
A498 renal = test system: A498 renal
SF-295 CNS = test system: SF-295 CNS
SNB-78 CNS = test system: SNB-78 CNS
SK-OV-3 ovarian = test system: SK-OV-3 ovarian
SW-620 colon = test system: SW-620 colon
SK-MEL-5 melanoma = test system: SK-MEL-5 melanoma
UO-31 renal = test system: UO-31 renal
HCT-116 colon = test system: HCT-116 colon
TK-10 renal = test system: TK-10 renal
DLD-1 colon = test system: DLD-1 colon
NCI-H23 lung = test system: NCI-H23 lung
HOP-92 NSCLC = test system: HOP-92 NSCLC
IGROV1 ovarian = test system: IGROV1 ovarian
COLO 205 colon = test system: COLO 205 colon
SF-539 CNS = test system: SF-539 CNS
ACHN renal = test system: ACHN renal
SN12C renal = test system: SN12C renal
OVCAR-5 ovarian = test system: OVCAR-5 ovarian
M19-MEL melanoma = test system: M19-MEL melanoma
SNB-19 CNS = test system: SNB-19 CNS
HCC-2998 colon = test system: HCC-2998 colon
LXFL 529 NSCLC = test system: LXFL 529 NSCLC
MALME-3M melanoma = test system: MALME-3M melanoma
HCT-15 colon = test system: HCT-15 colon
RPMI-8226 leukemia = test system: RPMI-8226 leukemia
SK-MEL-28 melanoma = test system: SK-MEL-28 melanoma
RXF 393 renal = test system: RXF 393 renal
K-562 leukemia = test system: K-562 leukemia
UACC-257 melanoma = test system: UACC-257 melanoma
HT29 colon = test system: HT29 colon

Measured: TGI

CC(=O)OCC1OC(OC2C(COC(C)=O)OC(Sc3ccccc3C)C(OC(C)=O)C2OC(C)=O)C(OC(C)=O)C(OC(C)=O)C1OC(C)=O (configuration not stated)
> 100 µM: A549 NSCLC | NCI-H226 lung | SF-268 CNS | HOP-62 NSCLC | DMS 114 small cell lung | CAKI-1 renal | KM12 colon | 786-0 renal | M14 melanoma | EKVX NSCLC | HOP-18 NSCLC | NCI-H460 lung | UACC-62 melanoma | MOLT-4 leukemia | SNB-75 CNS | U251 CNS | SR leukemia | NCI-H522 lung | SK-MEL-2 melanoma | DMS 273 small cell lung | KM20L2 colon | OVCAR-4 ovarian | A498 renal | SF-295 CNS | SNB-78 CNS | SK-OV-3 ovarian | SW-620 colon | SK-MEL-5 melanoma | UO-31 renal | HCT-116 colon | TK-10 renal | DLD-1 colon | NCI-H23 lung | HOP-92 NSCLC | IGROV1 ovarian | COLO 205 colon | SF-539 CNS | ACHN renal | SN12C renal | OVCAR-5 ovarian | M19-MEL melanoma | SNB-19 CNS | HCC-2998 colon | LXFL 529 NSCLC | MALME-3M melanoma | HCT-15 colon | RPMI-8226 leukemia | SK-MEL-28 melanoma | RXF 393 renal | K-562 leukemia | UACC-257 melanoma | HT29 colon
